Reference: ChEMBL document CHEMBL1201862, “PubChem BioAssay data set” (2004)
Activity calls are given as the source filed them.

Tests used:
cells [1] = assay type: functional, cell-based
cells [2] = assay type: functional, cell-based; remark: listed apart in the source
Protein Tat = Protein Tat (Human immunodeficiency virus type 1 group M subtype B (isolate HXB2)(HIV-1), UniProt P04608); assay type: functional;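 note: tat binding to TAR RNA read out by fluorescence polarization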
NADPH oxidase 1 = target: T1, NADPH oxidase 1 (Homo sapiens, UniProt Q9Y5S8); assay: Late-stage luminescence-based cell-based dose response assay to identify inhibitors of NADPH oxidase 1 (NOX1): Synthesized analogs.; assay type: functional
T1 sequence (Q9Y5S8 whole entry): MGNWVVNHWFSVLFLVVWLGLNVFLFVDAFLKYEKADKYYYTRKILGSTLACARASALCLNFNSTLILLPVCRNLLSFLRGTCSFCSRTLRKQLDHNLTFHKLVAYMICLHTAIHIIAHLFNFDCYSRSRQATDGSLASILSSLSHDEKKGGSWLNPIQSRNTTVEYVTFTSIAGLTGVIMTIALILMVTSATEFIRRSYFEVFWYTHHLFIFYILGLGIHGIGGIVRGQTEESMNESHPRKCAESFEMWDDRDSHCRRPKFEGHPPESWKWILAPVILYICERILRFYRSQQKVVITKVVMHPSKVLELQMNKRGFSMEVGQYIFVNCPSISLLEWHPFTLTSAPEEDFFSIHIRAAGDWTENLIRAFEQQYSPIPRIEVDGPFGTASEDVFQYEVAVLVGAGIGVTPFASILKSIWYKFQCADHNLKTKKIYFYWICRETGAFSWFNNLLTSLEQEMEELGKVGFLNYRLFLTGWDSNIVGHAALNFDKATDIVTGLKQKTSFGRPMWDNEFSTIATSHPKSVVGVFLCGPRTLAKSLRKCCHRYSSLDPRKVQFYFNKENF

[3] = target: Mitogen-activated protein kinase 10 (Homo sapiens, UniProt P53779); assay: Dose response biochemical screening assay for inhibitors of c-Jun N-Terminal Kinase 3 (JNK3). [Related pubchem assays: 746 ]
Sequence of Mitogen-activated protein kinase 10 (P53779 whole entry): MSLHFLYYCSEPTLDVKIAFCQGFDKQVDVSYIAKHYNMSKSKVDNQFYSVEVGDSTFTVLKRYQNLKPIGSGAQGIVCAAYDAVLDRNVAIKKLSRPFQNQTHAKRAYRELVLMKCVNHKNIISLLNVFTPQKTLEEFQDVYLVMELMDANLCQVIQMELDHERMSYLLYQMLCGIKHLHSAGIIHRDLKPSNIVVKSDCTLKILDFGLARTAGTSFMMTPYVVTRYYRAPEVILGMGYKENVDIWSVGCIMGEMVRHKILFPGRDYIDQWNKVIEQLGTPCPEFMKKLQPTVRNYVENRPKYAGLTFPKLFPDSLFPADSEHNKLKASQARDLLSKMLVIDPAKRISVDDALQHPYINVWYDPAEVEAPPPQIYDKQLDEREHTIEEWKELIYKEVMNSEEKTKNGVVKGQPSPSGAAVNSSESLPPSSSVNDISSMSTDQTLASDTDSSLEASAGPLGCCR

[4] = target: T2, Heat shock factor protein 1 (Mus musculus, UniProt P38532); assay: decrease of HSF1-responsive luciferase luminescence – cell-based, NIH3T3, dose retest, confirmation (AID 2382); assay type: functional;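 note: NIH3T3 fibroblasts with HSF1-driven luciferase reporter stressed by proteasome inhibitor MG132; luminescence from HSF1-driven luciferase expression after 8 hours of MG132 stress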
T2 sequence (P38532 whole entry): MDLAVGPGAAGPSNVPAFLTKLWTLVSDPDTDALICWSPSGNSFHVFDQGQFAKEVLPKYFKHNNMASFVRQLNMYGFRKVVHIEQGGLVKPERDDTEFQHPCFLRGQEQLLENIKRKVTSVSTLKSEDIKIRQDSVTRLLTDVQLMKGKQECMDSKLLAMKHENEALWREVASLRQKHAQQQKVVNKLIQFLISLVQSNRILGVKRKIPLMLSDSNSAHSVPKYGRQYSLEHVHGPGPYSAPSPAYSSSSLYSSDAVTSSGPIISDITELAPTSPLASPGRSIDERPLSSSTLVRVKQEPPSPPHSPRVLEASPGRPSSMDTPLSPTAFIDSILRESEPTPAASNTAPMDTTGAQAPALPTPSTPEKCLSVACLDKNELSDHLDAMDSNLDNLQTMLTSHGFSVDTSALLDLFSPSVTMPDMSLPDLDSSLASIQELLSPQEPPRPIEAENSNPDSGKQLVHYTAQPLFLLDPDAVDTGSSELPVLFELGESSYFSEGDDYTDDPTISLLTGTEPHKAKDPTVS

[5] = Trypanosoma cruzi growth suppression in host cells – NIH3T3 host cells, beta-gal luminescence, confirmation (AID 2044); assay type: functional, cell-based;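 note: intracellular parasites grown in NIH/3T3 mouse fibroblasts as host cells; luminescent beta-galactosidase reporter signal from transgenic T. cruzi replicating inside host cells; inhibitors lower the luminescence signal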
[6] = microbe, parasite or virus in culture; assay type: functional; settings: Mycobacterium tuberculosis
[7] = NIH3T3 cell viability loss – ATP luminescence, mouse fibroblasts, counter-screen, dose response (AID 2010); assay type: functional, cell-based;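 note: cells exposed to compound for about 90 hours before reading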
[8] = target: Heat shock protein HSP 90-alpha (Homo sapiens, UniProt P07900); assay: Luminescence-based dose response biochemical high throughput screening assay for inhibitors of the Heat Shock Protein 90 (HSP90). [Related pubchem assays: 1831 (Summary AID.), 1846 (Confirmation screen.), 1789 (Primary screen.)]
[9] = THP-1 cell cytotoxicity, dose response, cytotoxicity control for non-replicating M. tuberculosis project (AID 489025); assay type: functional
cells [10] = assay type: functional
[11] = HIV-1 Vif–A3G interaction blockers – biochemical, TR-FRET, GST-Vif 1-94, biotin-A3G peptide, dose response retest, primary screen (AID 1117319); assay type: functional;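 note: TR-FRET signal of purified GST-Vif binding a biotinylated A3G peptide; inhibitors lower the FRET signal by blocking Vif and A3G binding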
[12] = viability loss in Vero cells – cytotoxicity control for Vif-APOBEC3G degradation inhibitor project, dose response (AID 1117358); assay type: functional; settings: Vero
Aminopeptidase N = target: T3, Aminopeptidase N (Plasmodium falciparum FcB1/Columbia, UniProt O96935); assay: malaria alanyl aminopeptidase activity blockers – biochemical, fluorogenic H-Leu-NHMec substrate, 1536-well (AID 1445); parameters: species or system Plasmodium falciparum 3D7, 3D7
T3 sequence (O96935 whole entry): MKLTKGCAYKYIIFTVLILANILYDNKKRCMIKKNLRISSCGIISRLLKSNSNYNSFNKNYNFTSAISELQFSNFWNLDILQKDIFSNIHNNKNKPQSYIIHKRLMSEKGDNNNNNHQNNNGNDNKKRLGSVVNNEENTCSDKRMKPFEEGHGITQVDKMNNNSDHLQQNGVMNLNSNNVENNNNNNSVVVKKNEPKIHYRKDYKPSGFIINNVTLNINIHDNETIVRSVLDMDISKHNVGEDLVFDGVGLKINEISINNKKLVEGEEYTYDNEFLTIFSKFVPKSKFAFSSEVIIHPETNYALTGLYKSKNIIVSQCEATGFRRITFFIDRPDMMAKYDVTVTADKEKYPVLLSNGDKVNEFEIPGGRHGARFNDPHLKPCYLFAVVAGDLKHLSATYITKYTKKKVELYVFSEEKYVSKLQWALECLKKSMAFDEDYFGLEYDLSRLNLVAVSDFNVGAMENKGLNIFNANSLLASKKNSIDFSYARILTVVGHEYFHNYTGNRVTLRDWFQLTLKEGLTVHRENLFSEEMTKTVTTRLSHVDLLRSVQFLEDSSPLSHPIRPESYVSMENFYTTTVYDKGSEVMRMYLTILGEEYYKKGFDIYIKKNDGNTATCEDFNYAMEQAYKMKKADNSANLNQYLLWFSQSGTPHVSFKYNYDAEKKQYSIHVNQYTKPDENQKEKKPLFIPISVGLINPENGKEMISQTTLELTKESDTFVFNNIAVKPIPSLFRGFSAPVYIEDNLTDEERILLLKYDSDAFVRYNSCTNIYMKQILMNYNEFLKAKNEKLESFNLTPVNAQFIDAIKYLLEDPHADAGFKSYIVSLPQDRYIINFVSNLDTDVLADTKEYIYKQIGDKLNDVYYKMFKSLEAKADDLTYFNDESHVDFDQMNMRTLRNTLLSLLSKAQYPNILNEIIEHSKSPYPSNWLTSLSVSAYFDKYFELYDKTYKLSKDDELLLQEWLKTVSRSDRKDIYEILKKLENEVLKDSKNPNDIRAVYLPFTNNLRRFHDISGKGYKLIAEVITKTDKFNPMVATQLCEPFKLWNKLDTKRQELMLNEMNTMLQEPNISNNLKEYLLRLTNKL

Large T antigen = Large T antigen (Simian virus 40, UniProt P03070); assay type: functional, Betapolyomavirus macacae;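 note: Confirmatory-stage PubChem screen for compounds that inhibit SV40 T antigen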
Sequence of Large T antigen (P03070 whole entry): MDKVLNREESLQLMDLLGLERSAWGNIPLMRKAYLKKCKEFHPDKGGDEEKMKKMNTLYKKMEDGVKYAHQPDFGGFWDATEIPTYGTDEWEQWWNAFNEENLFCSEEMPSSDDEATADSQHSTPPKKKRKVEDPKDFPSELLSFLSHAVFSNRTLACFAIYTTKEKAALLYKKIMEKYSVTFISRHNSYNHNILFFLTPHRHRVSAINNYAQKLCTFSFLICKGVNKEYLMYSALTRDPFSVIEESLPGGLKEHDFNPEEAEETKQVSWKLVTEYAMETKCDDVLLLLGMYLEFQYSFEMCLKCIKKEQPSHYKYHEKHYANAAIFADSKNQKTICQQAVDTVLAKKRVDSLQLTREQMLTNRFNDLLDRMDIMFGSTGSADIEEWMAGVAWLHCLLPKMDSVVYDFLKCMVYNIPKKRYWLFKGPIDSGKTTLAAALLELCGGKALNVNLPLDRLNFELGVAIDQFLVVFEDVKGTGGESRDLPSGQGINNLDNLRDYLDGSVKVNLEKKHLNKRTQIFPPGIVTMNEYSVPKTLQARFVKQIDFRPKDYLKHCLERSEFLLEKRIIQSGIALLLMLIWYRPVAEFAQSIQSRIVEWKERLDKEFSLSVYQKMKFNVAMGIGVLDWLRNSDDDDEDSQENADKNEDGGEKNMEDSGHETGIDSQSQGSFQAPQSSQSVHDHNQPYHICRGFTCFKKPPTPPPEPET

Nonstructural protein 1 = Nonstructural protein 1 (Influenza A virus, UniProt Q194T2); assay type: functional, Influenza A virus (A/California/07/2009(H1N1))
Sequence of Nonstructural protein 1 (Q194T2 whole entry): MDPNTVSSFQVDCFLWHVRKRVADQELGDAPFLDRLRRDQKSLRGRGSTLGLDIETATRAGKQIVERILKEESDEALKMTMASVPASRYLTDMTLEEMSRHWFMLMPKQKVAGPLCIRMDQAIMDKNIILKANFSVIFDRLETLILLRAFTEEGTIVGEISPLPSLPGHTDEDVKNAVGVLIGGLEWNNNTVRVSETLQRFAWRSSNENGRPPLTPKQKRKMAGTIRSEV

[13] = target: T4, Replicative DNA helicase DnaB (Mycobacterium tuberculosis, UniProt P9WMR3); assay: DnaB intein splicing inhibitors, dose response, biochemical, cell-free fluorescence (AID 449749); assay type: functional
T4 sequence (P9WMR3 whole entry): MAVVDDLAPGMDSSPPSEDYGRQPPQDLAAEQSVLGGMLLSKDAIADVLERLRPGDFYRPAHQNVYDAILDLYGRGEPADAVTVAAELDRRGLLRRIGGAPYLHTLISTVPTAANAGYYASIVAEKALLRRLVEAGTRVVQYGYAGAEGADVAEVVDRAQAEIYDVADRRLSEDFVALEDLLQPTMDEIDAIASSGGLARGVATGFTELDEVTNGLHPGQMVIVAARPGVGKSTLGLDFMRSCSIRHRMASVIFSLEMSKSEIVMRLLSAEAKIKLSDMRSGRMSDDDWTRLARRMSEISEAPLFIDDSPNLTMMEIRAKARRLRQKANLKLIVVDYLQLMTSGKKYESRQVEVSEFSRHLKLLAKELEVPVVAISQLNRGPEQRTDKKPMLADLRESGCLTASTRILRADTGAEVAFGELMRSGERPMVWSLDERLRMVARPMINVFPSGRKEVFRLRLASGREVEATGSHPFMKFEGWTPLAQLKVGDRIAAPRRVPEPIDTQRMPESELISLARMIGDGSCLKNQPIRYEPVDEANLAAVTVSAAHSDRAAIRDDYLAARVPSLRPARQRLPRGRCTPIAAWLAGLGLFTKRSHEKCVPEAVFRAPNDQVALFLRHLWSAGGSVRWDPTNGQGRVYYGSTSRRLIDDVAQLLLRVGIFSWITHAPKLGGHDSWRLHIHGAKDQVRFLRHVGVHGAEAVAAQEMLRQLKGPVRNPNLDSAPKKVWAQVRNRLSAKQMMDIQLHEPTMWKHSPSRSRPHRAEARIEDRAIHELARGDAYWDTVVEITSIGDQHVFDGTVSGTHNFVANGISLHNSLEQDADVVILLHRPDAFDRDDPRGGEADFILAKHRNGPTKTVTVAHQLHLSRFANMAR

Protein RecA = target: T5, Protein RecA (Mycobacterium tuberculosis, UniProt P9WHJ3); assay: Fluorescence Cell-Free Homogeneous Dose Retest to Identify Inhibitors of RecA-Intein Splicing Activity. [Related pubchem assays (depositor defined):AID2097, AID2223, AID489010, AID492950]; assay type: functional
T5 sequence (P9WHJ3 whole entry): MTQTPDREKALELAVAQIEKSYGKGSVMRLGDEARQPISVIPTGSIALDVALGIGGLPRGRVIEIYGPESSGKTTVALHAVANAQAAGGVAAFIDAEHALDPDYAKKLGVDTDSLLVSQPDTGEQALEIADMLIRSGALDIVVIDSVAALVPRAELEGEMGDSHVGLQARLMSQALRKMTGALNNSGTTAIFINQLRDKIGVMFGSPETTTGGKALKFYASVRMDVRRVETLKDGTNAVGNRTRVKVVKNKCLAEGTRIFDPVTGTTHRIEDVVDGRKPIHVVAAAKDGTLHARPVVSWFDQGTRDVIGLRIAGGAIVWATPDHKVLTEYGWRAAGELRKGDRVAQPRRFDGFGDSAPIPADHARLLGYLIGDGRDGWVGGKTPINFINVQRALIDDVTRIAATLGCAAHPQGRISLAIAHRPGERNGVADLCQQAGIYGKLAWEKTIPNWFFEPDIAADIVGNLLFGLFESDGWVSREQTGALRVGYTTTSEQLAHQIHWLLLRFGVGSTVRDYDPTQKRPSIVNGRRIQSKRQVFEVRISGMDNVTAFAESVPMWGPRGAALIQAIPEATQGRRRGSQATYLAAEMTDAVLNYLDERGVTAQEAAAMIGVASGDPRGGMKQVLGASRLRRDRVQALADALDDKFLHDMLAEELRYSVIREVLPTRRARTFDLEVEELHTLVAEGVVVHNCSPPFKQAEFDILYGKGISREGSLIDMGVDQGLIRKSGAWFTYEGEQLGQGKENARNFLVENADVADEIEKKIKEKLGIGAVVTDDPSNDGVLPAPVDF

[14] = target: 26S proteasome non-ATPase regulatory subunit 14 (Homo sapiens, UniProt O00487); assay: inhibition of proteasome subunit RPN11 – biochemical, fluorescence polarization, uHTS hits, confirmation (AID 602368); assay type: functional
Sequence of 26S proteasome non-ATPase regulatory subunit 14 (O00487 whole entry): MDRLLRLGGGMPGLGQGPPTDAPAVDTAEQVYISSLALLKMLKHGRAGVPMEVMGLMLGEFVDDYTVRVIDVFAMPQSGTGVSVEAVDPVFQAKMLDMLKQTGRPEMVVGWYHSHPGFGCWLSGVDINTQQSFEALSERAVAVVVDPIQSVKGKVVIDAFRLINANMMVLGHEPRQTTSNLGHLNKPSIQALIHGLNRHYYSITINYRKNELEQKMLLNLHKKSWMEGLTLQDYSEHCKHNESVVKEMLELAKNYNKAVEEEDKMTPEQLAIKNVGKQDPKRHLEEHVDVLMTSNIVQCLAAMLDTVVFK

[15] = target: 72 kDa type IV collagenase (Homo sapiens, UniProt P08253); assay: Dose Response validation of uHTS RPN11 inhibitor hits using a MMP-2 Fluorescence assay.; assay type: functional
Sequence of 72 kDa type IV collagenase (P08253 whole entry): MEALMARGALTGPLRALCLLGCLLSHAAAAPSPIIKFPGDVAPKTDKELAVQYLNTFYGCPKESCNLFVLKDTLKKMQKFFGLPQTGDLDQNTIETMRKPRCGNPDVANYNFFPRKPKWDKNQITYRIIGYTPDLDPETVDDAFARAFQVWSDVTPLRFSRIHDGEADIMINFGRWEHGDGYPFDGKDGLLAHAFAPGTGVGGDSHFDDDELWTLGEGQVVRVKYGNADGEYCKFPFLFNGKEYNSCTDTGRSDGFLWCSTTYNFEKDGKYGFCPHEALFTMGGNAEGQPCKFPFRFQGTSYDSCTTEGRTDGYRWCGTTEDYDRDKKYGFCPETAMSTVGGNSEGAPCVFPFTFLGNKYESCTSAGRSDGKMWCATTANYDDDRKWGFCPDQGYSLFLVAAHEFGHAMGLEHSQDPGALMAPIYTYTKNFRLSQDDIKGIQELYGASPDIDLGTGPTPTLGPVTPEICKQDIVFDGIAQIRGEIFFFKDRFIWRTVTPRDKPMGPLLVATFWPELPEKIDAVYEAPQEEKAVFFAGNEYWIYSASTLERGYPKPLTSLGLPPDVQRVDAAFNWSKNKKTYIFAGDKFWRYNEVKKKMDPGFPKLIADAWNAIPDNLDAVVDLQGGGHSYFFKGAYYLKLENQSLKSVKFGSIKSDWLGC

Prothrombin = Prothrombin (Bos taurus, UniProt P00735); assay: thrombin protease inhibitors – biochemical, fluorescence polarization, uHTS hits, dose response (AID 602369); assay type: functional
[16] = target: Matrix metalloproteinase-14 (Homo sapiens, UniProt P50281); assay: Dose Response confirmation of uHTS hits for a small molecule inhibitors of MT1-MMP activation in a fluorescence assay set 1.; assay type: functional
[17] = viability loss in THP-1 monocytes – THP-1 cells, cytotoxicity control for Vif-APOBEC3G degradation inhibitor project, dose response (AID 1117359); assay type: functional; settings: THP-1
[18] = target: T6, Low molecular weight phosphotyrosine protein phosphatase (Homo sapiens, UniProt P24666); assay: inhibition of LMPTP-A enzymatic activity – biochemical, OMFP substrate, fluorescence intensity, set 2, dose response (AID 743307); assay type: functional
T6 sequence (P24666 whole entry): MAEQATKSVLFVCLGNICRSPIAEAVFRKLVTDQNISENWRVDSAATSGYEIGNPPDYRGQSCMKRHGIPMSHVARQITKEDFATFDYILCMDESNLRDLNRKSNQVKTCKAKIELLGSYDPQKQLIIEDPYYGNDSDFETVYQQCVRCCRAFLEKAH

[19] = target: T6, Low molecular weight phosphotyrosine protein phosphatase; assay: inhibition of human LMPTP enzyme activity – biochemical, absorbance, pNPP substrate, LMPTP-A isoform, set 2, orthogonal assay, dose response (AID 743308); assay type: functional

Sequence of Protein Tat (P04608 whole entry): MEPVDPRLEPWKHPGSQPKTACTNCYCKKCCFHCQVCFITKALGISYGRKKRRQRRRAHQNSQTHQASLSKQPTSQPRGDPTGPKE

COC(=O)/C(=C(/F)SCC(C)=O)C(F)(F)F
EC50 (cells [1]): > 350 µM (not active) | EC50 (cells [2]): > 350 µM (not active) | IC50 (Protein Tat): > 100 µM (active)

CC(=NNC(=O)c1ccc(O)cc1)c1ccc2c(c1)Nc1ccccc1S2
IC50 (NADPH oxidase 1): 0.382 µM (active)

COc1ccc(CC(=O)Nc2nc(C)cs2)cc1OC
IC50 [3]: 27.9 µM (not active)

COc1cccc(-c2cc3nc4c(c(NCC(C)(C)CN(C)C)n3n2)CCCC4)c1
EC50 [4]: 0.775 µM (active) | EC50 [5]: 0.487 µM (active) | CC50 [6]: 34.2 µM (active) | EC50 [7]: > 60 µM (not active) | IC50 [8]: 2.39 µM (active) | CC50 [9]: 28.9 µM (active) | IC50 (cells [10]): 19.2 µM (active)

CCCNC(=O)c1ccc2c(c1)C1C3CCC(C3)C1C(c1ccccc1)N2 (stereo unspecified)
IC50 [11]: > 100 µM (active) | CC50 [12]: > 40 µM (active)

CCN(CC)c1ccc(/C=C2\C(=O)N(c3nnc(C)c(O)n3)N=C2C)cc1
IC50 (Aminopeptidase N): 42.6 µM (active) | IC50 (Large T antigen): 54.1 µM (active) | IC50 (Nonstructural protein 1): 12.6 µM (active) | AC50 [13]: 6.6 µM (active) | EC50 (Protein RecA): 2.08 µM (active) | IC50 [14]: 49.4 µM (active) | IC50 [15]: 96 µM (active) | IC50 (Prothrombin): 49.9 µM (active) | IC50 [16]: 32.8 µM (inactive) | CC50 [17]: 25.6 µM (active)

Cc1ccc2nc(-c3ccccc3)cc(NCCCN3CCCCC3)c2c1
IC50 [18]: > 80 µM (inactive) | IC50 [19]: > 80 µM (inactive)
